This is an account of results in US6258790A, “Antisense modulation of integrin α4 expression” (Isis Pharmaceuticals, Inc., priority 1999, dated 2001).

The data set concerns human integrin α4. In words: Inhibition of human integrin α4 protein levels by antisense oligonucleotides (LIPOFECTIN, flow cytometry with CD49d-FITC) in A375 melanoma cells. Type of data set: cell-based. The settings on record: for % Control (integrin α4 protein) / % Inhib (integrin α4 protein): Table 1, A375 cells, 200 nM oligonucleotide, 6 ug/ml LIPOFECTIN; for inhibition (Example 11): Example 11 assay, dose not stated; for % CONTROL 48 hr / % INHIB 48 hr / % CONTROL 72 hr / % INHIB 72 HR: Table 2, A375; for % Control / % Inhib.: Table 6. From the text:
Integrin α4 protein levels can be quantitated in a variety of ways well known in the art, such as immunoprecipitation, Western blot analysis (immunoblotting), ELISA or fluorescence-activated cell sorting (FACS). Antibodies directed to integrin α4 can be identified and obtained from a variety of sources, such as the MSRS catalog of antibodies (Aerie Corporation, Birmingham, Mich.), or can be prepared via conventional antibody generation methods.
Target sites are indicated by nucleotide numbers, as given in the sequence source reference (GenBank accession no. L12002), to which the oligonucleotide binds. All compounds in Table 1 are 18 nucleotides in length, with a phosphorothioate backbone and a centered 10-base deoxynucleotide gap flanked by 2'-methoxyethoxy (2'MOE) wings. Human A375 melanoma cells (American Type Culture Collection, Manassas, Va.) were plated at 2000 cells/cm^2 two days before oligonucleotide treatment. Cells were treated with oligonucleotides at a dose of 200 nM oligonucleotide and 6 ug/ml LIPOFECTIN for four hours. Cells were incubated overnight and harvested with 2 mM EDTA in PBS. Cells were washed in 2% bovine serum albumin, 0.2% sodium azide in D-PBS at 4° C. Cells were centrifuged at 200×g, and the supernatant was decanted. […] Antibodies were incubated with the cells for 30 minutes at 4° C. in the dark, under gentle agitation. Cells were washed again as above and then resuspended in 0.3 ml of FacsFlow buffer with 0.5% formaldehyde. Cells were analyzed on Becton Dickinson FACScan. Results are expressed as percentage of control expression based on mean fluorescence intensity.
Cells were harvested with trypsin at 48 and 72 hours after oligonucleotide treatment and stained with 2 ug/ml CD49d-FITC as in the previous example.
Where backbones are mixed, linkages are shown as "s" for phosphorothioate (P=S or PS) and "o" for phosphodiester (P=O or PO). Where target region is indicated as `M62841,` oligonucleotides are targeted to the promotor region whose sequence is described in GenBank Accession No. M62841. Remaining oligonucleotides are targeted to the sequence described in Genbank Accession No. L12002 and their target sites on the L12002 sequence are indicated.
Target sites refer to nucleotide numbers on the target sequence (GenBank Accession No. L12002) to which the oligonucleotides hybridize.
Oligonucleotides were synthesized as "gapmers" consisting of a 9-nucleotide region of deoxynucleotides flanked by three 2'-O-methoxyethyl(2'-MOE) nucleotides on the 5' end and eight 2'-MOE nucleotides on the 3' end. 2'-MOE nucleotides are shown in bold in the table. Oligonucleotides were synthesized with phosphorothioate backbones throughout, and all cytosines are 5-methylcytosines.
A general note: A flow cytometer gives signals particle by particle.

As to “24439 (CTCCGTCTCTGCCTACGC; chemistry not given here) [compound 24439]”, the “% Control (integrin α4 protein)” value came out at 120%.

For the substance “24440 (CGGGTGCTCGCGCTGCTT; chemistry not given here) [compound 24440]”, the “% Control (integrin α4 protein)” value was 101%.

Consider “24441 (CCTGGGATGCCGCGCACT; chemistry not given here) [compound 24441]”, for which the “% Control (integrin α4 protein)” value is 112%.

Turning to “24442 (ATGAGGCGCAGCGTGTCC; chemistry not given here) [compound 24442]”, the “% Control (integrin α4 protein)” value is 82% and the “% Inhib (integrin α4 protein)” value is 18%.

Turning to “24443 (CAAAGTTGCACGGGATGC; chemistry not given here) [compound 24443]”, the “% Control (integrin α4 protein)” value turned out to be 63% and the “% Inhib (integrin α4 protein)” value was found to be 37%.

On to “24444 (GGAACATTCAACACTAAG; chemistry not given here) [compound 24444]”, for which the “% Control (integrin α4 protein)” value came to 68% and the “% Inhib (integrin α4 protein)” value is listed as 32%.

For the substance “24445 (CCCGGGTTCGCGCCTCGC; chemistry not given here) [compound 24445]”, the “% Control (integrin α4 protein)” value is 73% and the “% Inhib (integrin α4 protein)” value stood at 27%.

For the substance “24446 (GCGCGCTCTCAGTGTCCA; chemistry not given here) [compound 24446]”, the “% Control (integrin α4 protein)” value came to 58% and the “% Inhib (integrin α4 protein)” value is reported as 42%.

In the case of “24447 (GTGGCTGTGCAGCACGAC; chemistry not given here) [compound 24447]”, the “% Control (integrin α4 protein)” value is recorded as 76% and the “% Inhib (integrin α4 protein)” value was found to be 24%.

For the substance “24448 (ACTGAAGCGTTGGCGAGC; chemistry not given here) [compound 24448]”, the “% Control (integrin α4 protein)” value was determined as 55% and the “% Inhib (integrin α4 protein)” value is recorded as 45%.

As for “24449 (GCACGTCTGGCCGGGATT; chemistry not given here) [compound 24449]”, the “% Control (integrin α4 protein)” value was found to be 61% and the “% Inhib (integrin α4 protein)” value was determined as 39%.

Consider “24451 (CCACTGATTGTCTCTCTC; chemistry not given here) [compound 24451]”, for which the “inhibition (Example 11)” value was at least 40% and the “% Control (integrin α4 protein)” value worked out at 51%. Moreover, for the setting “50 nM”, the “% CONTROL 48 hr” value amounted to 63% and the “% INHIB 48 hr” value was determined as 37%. Further, where the note is “100 nM”, the “% CONTROL 48 hr” value was 44%, the “% INHIB 48 hr” value was determined as 56%, the “% Control” value is listed as 66% and the “% Inhib.” value was 34%. For the setting “200 nM”, the “% CONTROL 48 hr” value amounted to 34% and the “% INHIB 48 hr” value is listed as 66%. For the same substance, for the setting “400 nM”, the “% CONTROL 48 hr” value is reported as 44% and the “% INHIB 48 hr” value amounted to 56%. The “% Control” value (10 nM) stood at 96%. In addition, under “30 nM”, the “% Control” value stood at 77% and the “% Inhib.” value stood at 23%. Further, where the note is “300 nM”, the “% Control” value is on record as 35%. In addition, where the note is “300 nM (highest dose)”, the “% Inhib.” value is reported as 65%.

Take “24452 (GGATCCATTTTCTCCTGG; chemistry not given here) [compound 24452]”: the “% Control (integrin α4 protein)” value worked out at 60% and the “% Inhib (integrin α4 protein)” value amounted to 40%.

Regarding “24453 (GCTTATTTTCATTCTTTA; chemistry not given here) [compound 24453]”, the “inhibition (Example 11)” value is given as at least 40% and the “% Control (integrin α4 protein)” value came out at 47%. Further, under “50 nM”, the “% CONTROL 48 hr” value stood at 79%, the “% INHIB 48 hr” value is given as 21%, the “% CONTROL 72 hr” value turned out to be 78% and the “% INHIB 72 HR” value amounted to 22%. For the same substance, for the setting “100 nM”, the “% CONTROL 48 hr” value is recorded as 95%, the “% CONTROL 72 hr” value is recorded as 93%, the “% Control” value is 80% and the “% Inhib.” value came out at 20%. Moreover, for the setting “200 nM”, the “% CONTROL 48 hr” value was determined as 38%, the “% INHIB 48 hr” value was found to be 62%, the “% CONTROL 72 hr” value was found to be 64% and the “% INHIB 72 HR” value amounted to 36%. Also, for the setting “400 nM”, the “% CONTROL 48 hr” value was 41%, the “% INHIB 48 hr” value is recorded as 59%, the “% CONTROL 72 hr” value came out at 58% and the “% INHIB 72 HR” value was 42%. Besides, under “10 nM”, the “% Control” value was determined as 88% and the “% Inhib.” value turned out to be 12%. For the same substance, under “30 nM”, the “% Control” value is 90% and the “% Inhib.” value was 10%. Besides, under “300 nM”, the “% Control” value is reported as 43%. The “% Inhib.” value (300 nM (highest dose)) is listed as 57%.

In the case of “24454 (TTCTTTTACTCAGTTCTG; chemistry not given here) [compound 24454]”, the “% Control (integrin α4 protein)” value is on record as 53% and the “% Inhib (integrin α4 protein)” value was 47%.

As for “24455 (TCACATAATCTTGATAAC; chemistry not given here) [compound 24455]”, the “% Control (integrin α4 protein)” value is given as 81% and the “% Inhib (integrin α4 protein)” value stood at 19%.

As for “24456 (CCCATCACAATTAAATCC; chemistry not given here) [compound 24456]”, the “% Control (integrin α4 protein)” value came out at 76% and the “% Inhib (integrin α4 protein)” value came to 24%.

With “24457 (TTATTTGTAGTTATATTG; chemistry not given here) [compound 24457]”, the “% Control (integrin α4 protein)” value is given as 106%.

Regarding “24458 (CCTAAATAACTTCCAAAT; chemistry not given here) [compound 24458]”, the “% Control (integrin α4 protein)” value came out at 88% and the “% Inhib (integrin α4 protein)” value is 12%.

Take “24459 (GAAAATGACCAGCTCCGA; chemistry not given here) [compound 24459]”: the “% Control (integrin α4 protein)” value is 61% and the “% Inhib (integrin α4 protein)” value is 39%.

As to “24460 (TTTCATGTAAGATATTTA; chemistry not given here) [compound 24460]”, the “% Control (integrin α4 protein)” value is reported as 94%.

Consider “24461 (CCACAGCACAGACAGAAG; chemistry not given here) [compound 24461]”, for which the “% Control (integrin α4 protein)” value amounted to 69% and the “% Inhib (integrin α4 protein)” value amounted to 31%.

Turning to “24462 (TGGTGCTCTGCATGGGTG; chemistry not given here) [compound 24462]”, the “% Control (integrin α4 protein)” value stood at 65% and the “% Inhib (integrin α4 protein)” value turned out to be 35%.

With “24463 (TACACAAACACTCTTCCT; chemistry not given here) [compound 24463]”, the “% Control (integrin α4 protein)” value is reported as 101%.

For the substance “24464 (TTTGTTTCCATTGCATTC; chemistry not given here) [compound 24464]”, the “% Control (integrin α4 protein)” value came to 62% and the “% Inhib (integrin α4 protein)” value came to 38%.

For the substance “24465 (TGCAGCATATTTGTCACT; chemistry not given here) [compound 24465]”, the “% Control (integrin α4 protein)” value is 63% and the “% Inhib (integrin α4 protein)” value is reported as 37%.

As for “24466 (TTGTCAATGTCGCCAAGA; chemistry not given here) [compound 24466]”, the “% Control (integrin α4 protein)” value amounted to 64% and the “% Inhib (integrin α4 protein)” value worked out at 36%.

For the substance “24467 (TCATCTTCTTGTGGAGCT; chemistry not given here) [compound 24467]”, the “% Control (integrin α4 protein)” value is recorded as 101%.

As for “24468 (CCATCTGCACGGCCATTG; chemistry not given here) [compound 24468]”, the “% Control (integrin α4 protein)” value stood at 72% and the “% Inhib (integrin α4 protein)” value is on record as 28%.
